Legend:
QSOX1-a mRNA = QSOX1-a mRNA abundance in RNase L-knockdown (CRISPR-edited) MDA-MB-231 cells; assay type: cell-based, human; conditions: CRISPR-edited cells with RNase L knockdown
Description: The CRISPR-edited MDA-MB-231 cell lines used in this study were the same as those previously reported and characterized.^8 Briefly, lentiviral constructs containing Cas9 and gRNA targeting RNase L mRNA (or a scramble control) were purchased (Transomic Tech) and transfected in HEK293T cells (ATCC CRL-11268) to harvest virus. Transduction to MDA-MB-231 cells were performed in the presence of […] polybrene (Millipore, Cat #TR-1003-G) followed by selection with puromycin.
Analysis of mRNA Abundance by RT-qPCR. Unless stated otherwise, all RT-qPCR experiments were performed to measure nascent RNA levels by using Click-it Nascent RNA Capture Kit (Cat #C10365, Thermo Fisher) per the manufacturer's protocols. Briefly, cells were treated with 0.2 mM of ethynyl uridine (EU) in growth medium for 16 h, after which the medium was replaced with fresh growth medium lacking EU. Compound or ASO treatment was performed at the same time of initial EU treatment, and compounds were replenished after replacing the medium to remove EU. Total RNA was extracted by using a Zymo Quick-RNA Miniprep Kit as per manufacturer's protocol with DNase treatment. The click reaction and pull-down of nascent RNA were performed as described in “In Vitro Chemical-Crosslinking and Isolation by Pull-down (Chem-CLIP) with Fluorescently Labeled RNA”. […]

MDA-MB-231 cells = assay: Invasion assay; assay type: cell-based, human; conditions: 10 μM, 48 h
Description: Invasion Assay. MDA-MB-231 cells were seeded in […] and treated with compound or transfected by ASO for 48 h as described in Cell Culture. After treatment for 48 h, the medium was replaced with fresh medium that contains same concentration of compound but lacking FBS for 8 h (serum starvation). ThinCert (GBO) 24-well inserts with 8 μm pores were coated with 100 μL of 0.5 mg/mL Matrigel (Fisher Scientific: CB40234) per well, and then cells were added into the insert (50,000 cells per well). Fresh growth medium with FBS was added to a 24-well plate (600 μL each well), and the inserts containing cells were placed on the top, allowing medium to cover the bottom of the insert. After 16 h, all medium was removed, and cells were washed by 1×DPBS twice. Cells were then fixed with 3% (w/v) paraformaldehyde (PFA) in 1×DPBS at room temperature for 30 min, followed by staining with Crystal Violet (10 mg/mL; 4:1H2O:MeOH) at room temperature for 20 min. A cotton swab was used to gently remove non-invasive cells on sitting on top of the Matrigel. The inserts were then imaged under a regular optical microscope (3 views per well), and the number of invasive cells were counted manually.

MDA-MB-231 TBNC cells = assay: Viability of MDA-MB-231 cells; assay type: cell-based, human; design: dose or concentration left out as unconfirmed; conditions: the highest dose
[1] = tested on: mutant RNA lacking U-bulge (fully paired RNA); assay: In vitro binding by fluorescence polarization, Cy5-labeled mutant RNA
Description: In Vitro Binding by Measuring Changes in Fluorescence Polarization. Cy5-labeled RNA was folded by heating at 95° C. for 2 min in 1× Folding Buffer and cooled on ice. Serial dilutions of F1 (200 to 0.4 μM, 1:1 dilutions) were prepared in 1× Folding Buffer with 4% (w/v) bovine serum albumin (BSA) with constant DMSO concentration (2% v/v). The compound solutions (10 μL) were added to a well of non-binding 384-well plate (Corning). An equal volume of folded RNA was adding to each well with a final concentration of 50 nM. The samples were incubated at room temperature for 30 min, and then fluorescence polarization was measured with a Molecular Devices SpectraMax M5 plate reader with an excitation wavelength of 640 nm and an emission wavelength of 680 nm.

[2] = tested on: mutant RNA (U-bulge mutated to U/A base pair); assay: Optical melting, mutant model RNA; assay type: binding
Description: Optical Melting Experiments. The thermal stability of WT and mutant model RNAs in the presence and absence of F1-Amide was measured by optical melting. The RNA ([…]) was prepared in 1× Melting Buffer (8 mM Na2HPO4, pH 7, 10 mM NaCl, and 1 mM EDTA) and heated to 95° C. followed by cooling on ice. F1-Amide was added to the final concentration of 2 mM; an equal volume of DMSO was added to the vehicle sample. The absorbance of the solution at 260 nm was measured by a Beckman Coulter DU800 spectrophotometer as a function of temperature, from 12° C. to 85° C. at a rate of 1° C./min. The background absorbance of buffer with DMSO or compound was subtracted before fitting the curve with MeltWin (v3.5)^7 to determine the melting temperature (Tm) and the Gibbs free energy (ΔG37° C.).

Row | SMILES | effect on QSOX1-a mRNA in RNase L-knockdown cells (QSOX1-a mRNA) | reduction of the number of invasive MDA-MB-231 cells (MDA-MB-231 cells) [%] | effect on viability (MDA-MB-231 TBNC cells) | binding to fully paired RNA (U bulge converted to AU base pair) [1] | effect on Tm or ΔG37° C. of mutant RNA [2]
1 | CCOC(=O)C1=C(Nc2ccccc2)S/C(=C\c2ccc(OCCOCCOCCOCCNC(=O)CCC(=O)N(C)[C@H]3CC[C@@H](c4ccc(Cl)c(Cl)c4)c4ccccc43)c(O)c2)C1=O [Compound F1-RIBOTAC] | ablated | ~40 | no effect on viability | – | –
2 | C#CCCC1(CCC(=O)N(C)[C@H]2CC[C@@H](c3ccc(Cl)c(Cl)c3)c3ccccc32)N=N1 [Compound F1] | – | – | – | no detectable binding | No changes

— patent publication US20250346943A1, “DEGRADER COMPOUNDS OF QSOX1 mRNA” (UNIVERSITY OF FLORIDA RESEARCH FOUNDATION, INCORPORATED, priority 2022, published 2025)
